Like-named read-outs stand apart in the source and are kept apart here.
What was measured:
[1] = tested on: growth of the small intestine in mice; type: in vivo; details: for Small intestinal weight, Mean ± SD / Small intestinal weight/body weight, Mean ± SD: group mean
Excerpt: Bioassay in Mice. Dose-Response Study of GLP-2 Derivatives. • Table 3. Model parameter estimates following nonlinear regression analysis of dose and small intestinal weights relative to body weight. • Table 4. Model parameter estimates following nonlinear regression analysis of dose and small intestinal weights. • Table 5. Body weight, small intestinal weight and relative small intestinal weight of mice treated with L17K(3-(tetradecanoylamino)propionyl)/K30R-[…]. • Table 6. […]. Body weight, small intestinal weight and relative small intestinal weight of mice treated with A2G-[…]. • Table 8. Body weight, small intestinal weight and relative small intestinal weight of control mice.
The following GLP-2 derivatives and analog were tested: • 1. L17K(3-(tetradecanoylamino)propionyl)/K30R-[…]. • 2. L17K(3-(hexadecanoylamino)propionyl)/K30R-[…]. • 3. A2G-[…]. All derivatives were dissolved and diluted in buffer containing:
Disodiumhydrogenphosphate 1.42 mg/ml, Mannitol 36.9 mg/ml, Phenol 5 mg/ml, pH 8.0.
189 female C57b1 mice were used in the study. All animals were divided into four groups:
• Group 1: Controls • Group 2: L17K(3-(tetradecanoylamino)propionyl)/K30R-[…] • Group 3: L17K(3-(hexadecanoylamino)propionyl)/K30R-[…] • Group 4: A2G-[…] Dosing
All animals received a daily subcutaneous injection of 100 pi for 10 days with the following doses:
At Day 10 the animals were weighted before they were sacrificed. The intestine was carefully removed from each animal and the small intestine dissected, rinsed with saline and weighted.
Body weight, small intestinal weight and small intestinal weight relative to body weight were reported for all animals and used generating the dose-response relationship. The treatment-induced increase in both absolute and relative small intestinal weight is calculated for each treatment group, since this is considered the pharmacologically relevant efficacy parameter.
A generalised Michaelis-Menten model, with shape factor γ corresponding to the Hillslope in the semilogarithmic dose-response curve and E0 representing the background efficacy level at D=0, was used as dose-response model. Emax is the maximal effect observed and ED50 is the dose that gives an effect equal to 50% of Emax. The model was used because of the higher flexibility compared to a four parameter logistic dose-response model (1). The model was fitted to data using nonlinear regression in order to determine estimates for Emax, ED50, γ and E0.
[formula] The goodness of fit was evaluated by visual inspection of plots showing observed data points together with fitted curves and residuals plots. Parameter estimates are presented together with CV % and 95% C.I.
In order to account for the variability in the background efficacy level, control data were included in the nonlinear regression analysis as D=0 for all three treatment groups.
The nonlinear regression analyses were performed using WinNonlin Professional, version 3.1, Pharsight. The nonlinear regression was performed using the Gauss-Newton (Levenberg and Hartley) algorithm.

[2] = tested on: Dextran sulfate (DS)-induced colitis; details: 350 ng or 750 ng s.c. twice daily for 9-10 days, cited from earlier work
[3] = background efficacy level at D=0, nonlinear regression of dose-response, mice, daily s.c. for 10 days
[4] = dose level A, 33 μg daily s.c. for 10 days
[5] = dose level B, 16.5 μg daily s.c. for 10 days
[6] = dose level C, 8.25 μg daily s.c. for 10 days
[7] = dose level D, 4.125 μg daily s.c. for 10 days
[8] = dose level E, 2.063 μg daily s.c. for 10 days
[9] = dose level F, 1.031 μg daily s.c. for 10 days
[10] = dose level G, 0.512 μg daily s.c. for 10 days
[11] = nonlinear regression of dose-response
[12] = nonlinear regression of dose-response, mice, daily s.c. for 10 days
[13] = treatment-induced increase, secondary parameter of curve fitting

## CC[C@H](C)[C@H](NC(=O)[C@H](Cc1ccccc1)NC(=O)[C@H](CC(=O)O)NC(=O)[C@H](CCCNC(=N)N)NC(=O)[C@H](C)NC(=O)[C@H](C)NC(=O)[C@H](CC(C)C)NC(=O)[C@H](CC(N)=O)NC(=O)[C@H](CC(=O)O)NC(=O)[C@H](CC(C)C)NC(=O)[C@@H](NC(=O)[C@@H](NC(=O)[C@H](CC(N)=O)NC(=O)[C@H](CCSC)NC(=O)[C@H](CCC(=O)O)NC(=O)[C@H](CC(=O)O)NC(=O)[C@H](CO)NC(=O)[C@H](Cc1ccccc1)NC(=O)[C@H](CO)NC(=O)CNC(=O)[C@H](CC(=O)O)NC(=O)CNC(=O)[C@@H](N)Cc1c[nH]cn1)[C@@H](C)O)[C@@H](C)CC)C(=O)N[C@@H](CC(N)=O)C(=O)N[C@@H](Cc1c[nH]c2ccccc12)C(=O)N[C@@H](CC(C)C)C(=O)N[C@H](C(=O)N[C@@H](CCC(N)=O)C(=O)N[C@H](C(=O)N[C@@H](CCCCN)C(=O)N[C@H](C(=O)N[C@H](C(=O)N[C@@H](CC(=O)O)C(=O)O)[C@@H](C)O)[C@@H](C)CC)[C@@H](C)O)[C@@H](C)CC [A2G-GLP-2(1-33)]
[1]; [3]
  E0, parameter estimate (CV %), small intestinal weight: 1.1095 (2.0) g
  E0, parameter estimate (CV %), small intestinal weight relative to body weight: 0.0425 (2.4)
[1]; [4]
  Small intestinal weight, Mean ± SD: 1.2300 ± 0.1602 g
  Small intestinal weight/body weight, Mean ± SD: 0.0501 ± 0.0057
[1]; [5]
  Small intestinal weight, Mean ± SD: 1.1775 ± 0.1337 g
  Small intestinal weight/body weight, Mean ± SD: 0.0489 ± 0.0042
[1]; [6]
  Small intestinal weight, Mean ± SD: 1.2463 ± 0.1235 g
  Small intestinal weight/body weight, Mean ± SD: 0.0484 ± 0.0052
[1]; [7]
  Small intestinal weight, Mean ± SD: 1.1713 ± 0.1687 g
  Small intestinal weight/body weight, Mean ± SD: 0.0448 ± 0.0054
[1]; [8]
  Small intestinal weight, Mean ± SD: 1.0750 ± 0.1124 g
  Small intestinal weight/body weight, Mean ± SD: 0.0443 ± 0.0027
[1]; [9]
  Small intestinal weight, Mean ± SD: 1.1688 ± 0.0923 g
  Small intestinal weight/body weight, Mean ± SD: 0.0461 ± 0.0041
[1]; [10]
  Small intestinal weight, Mean ± SD: 1.1075 ± 0.1014 g
  Small intestinal weight/body weight, Mean ± SD: 0.0436 ± 0.0036
[1]; [11]
  γ (shape factor, Hillslope), parameter estimate (CV %), small intestinal weight: 8.4169 (1869)
  γ (shape factor, Hillslope), parameter estimate (CV %), small intestinal weight relative to body weight: 0.6625 (109)
[1]; [12]
  Emax, parameter estimate (CV %), small intestinal weight: 1.2180 (2.3) g
  Emax, parameter estimate (CV %), small intestinal weight relative to body weight: 0.0548 (33.3)
[1]; [13]
  Emax − E0, parameter estimate (CV %), small intestinal weight: 0.1085 (34.8) g
  Emax − E0, parameter estimate (CV %), small intestinal weight relative to body weight: 0.0123 (151)
[2]; DS mice
  histology of colon: exhibited a greater proportion of intact mucosal epithelium, increased colon length, crypt depth and mucosal area
[2]; mice receiving 5% DS in the drinking water
  body weight loss: lost significantly less body weight
